# Tests used:
# [1] = target: T1, soluble guanylate cyclase (Sus scrofa, UniProt A0A4X1U7N1+A0ACM8Q7I6); test: Stimulation of soluble guanylate cyclase in primary endothelial cells (intracellular cGMP, radioimmunological); format: cell-based; settings: 10 min, test substance 1 μM, primary endothelial cells from pig aorta, NOSYNTH, stimulation buffer with or without NO donor (SNP 1 μM), read-out: % cGMP increase (NOSYNTH)
# T1 construct: endogenous in cells; host or cells: primary endothelial cells from pig aorta
# T1 sequence (A0A4X1U7N1 1-619): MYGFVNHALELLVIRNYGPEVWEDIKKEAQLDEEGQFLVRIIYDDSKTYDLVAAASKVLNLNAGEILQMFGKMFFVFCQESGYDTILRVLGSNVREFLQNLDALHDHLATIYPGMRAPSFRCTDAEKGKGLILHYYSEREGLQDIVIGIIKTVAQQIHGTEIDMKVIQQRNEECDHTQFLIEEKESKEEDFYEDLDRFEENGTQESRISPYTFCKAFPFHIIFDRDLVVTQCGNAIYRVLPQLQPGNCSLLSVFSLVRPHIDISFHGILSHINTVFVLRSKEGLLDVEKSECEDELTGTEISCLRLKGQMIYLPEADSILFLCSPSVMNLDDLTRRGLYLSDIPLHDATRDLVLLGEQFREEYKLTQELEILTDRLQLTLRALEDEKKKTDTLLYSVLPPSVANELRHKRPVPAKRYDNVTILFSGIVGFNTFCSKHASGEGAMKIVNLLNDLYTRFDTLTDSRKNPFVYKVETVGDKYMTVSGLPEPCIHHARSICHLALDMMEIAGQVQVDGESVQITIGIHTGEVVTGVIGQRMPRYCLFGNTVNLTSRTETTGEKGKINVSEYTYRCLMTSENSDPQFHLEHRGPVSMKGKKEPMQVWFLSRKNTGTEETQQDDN
# T1 sequence (A0ACM8Q7I6 1-688): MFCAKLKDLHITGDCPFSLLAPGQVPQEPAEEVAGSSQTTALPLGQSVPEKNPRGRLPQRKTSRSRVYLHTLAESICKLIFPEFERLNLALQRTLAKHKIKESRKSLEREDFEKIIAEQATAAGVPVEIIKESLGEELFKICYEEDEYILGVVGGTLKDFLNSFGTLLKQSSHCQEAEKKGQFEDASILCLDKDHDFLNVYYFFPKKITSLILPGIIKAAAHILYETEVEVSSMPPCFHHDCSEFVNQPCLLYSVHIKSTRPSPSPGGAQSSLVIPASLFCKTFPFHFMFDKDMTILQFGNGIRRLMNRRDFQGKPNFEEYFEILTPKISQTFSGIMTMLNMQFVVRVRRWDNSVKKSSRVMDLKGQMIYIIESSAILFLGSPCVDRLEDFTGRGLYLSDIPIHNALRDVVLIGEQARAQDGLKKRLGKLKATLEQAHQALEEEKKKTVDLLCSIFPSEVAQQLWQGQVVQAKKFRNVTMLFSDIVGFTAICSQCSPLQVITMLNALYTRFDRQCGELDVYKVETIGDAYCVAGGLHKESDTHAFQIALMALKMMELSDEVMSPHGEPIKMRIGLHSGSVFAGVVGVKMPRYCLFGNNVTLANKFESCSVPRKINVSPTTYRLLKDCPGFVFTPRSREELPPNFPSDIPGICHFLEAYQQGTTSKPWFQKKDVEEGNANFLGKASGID
# Description: (§1) To determine the cardiovascular action, the following investigations were carried out: in in vitro investigations on cells of vascular origin, the influence on guanylate cyclase-dependent cGMP formation was tested with and without NO donors. The vasorelaxant action was determined on rabbit aorta rings precontracted with phenylephrine. The hypotensive action was investigated in anaesthetized rats.
# Stimulation of Soluble Guanylate Cyclase in Primary Endothelial Cells
# Primary endothelial cells were isolated from pig aortas by treatment with collagenase soln. The cells were then cultured in culture medium until confluence was achieved. For the investigations, the cells were passaged, inoculated into cell culture plates and subcultured until confluence was achieved. To stimulate the endothelial guanylate cyclase, the culture medium was aspirated and the cells were washed once with Ringer's solution and incubated in stimulation buffer with or without NO donor (sodium nitroprusside, SNP, 1 μM). Following this, the test substances (final concentration 1 μM) were then pipetted onto the cells. After the end of the incubation time of 10 minutes, the buffer solution was aspirated and the cells were lysed at -20° C. for 16 hours. The intracellular cGMP was then determined radioimmunologically.
# rabbit aorta rings = test: Vasorelaxant action in vitro (aorta rings precontracted with phenylephrine); settings: Oryctolagus cuniculus; isolated rabbit aorta, phenylephrine contraction, 37° C., reduction of control contraction by 50%; read-out: Aorta IC 50
# Description: as §1
# Vasorelaxant Action in vitro
# 1.5 mm wide rings of an isolated rabbit aorta are placed individually under a pretension into 5 ml organ baths containing carbogen-aerated Krebs-Henseleit solution at a temperature of 37° C. The contractile force is amplified and digitalized, and recorded in parallel on a linear recorder. To generate a contraction, phenylephrine is added to the bath cumulatively in increasing concentration.
# After several control cycles, the substance to be investigated is investigated in each further passage in increasing dose in each case and the contraction is compared with the height of the contraction achieved in the last previous passage. From this, the concentration is calculated which is necessary to reduce the height of the control value by 50% (IC50). The standard administration volume is 5 μl.
# anaesthetized rats = test: Blood pressure measurements on anaesthetized rats; format: in vivo; settings: anaesthetized male Wistar rats; for Max. blood pressure decrease: time 60 min
# Description: as §1
# Blood Pressure Measurements on Anaesthetized Rats
# Male Wistar rats having a body weight of 300-350 g are anaesthetized with thiopental (100 mg/kg i.p.). After tracheotomy, a catheter is inserted in the femoral artery for blood pressure measurement. The substances to be tested are administered orally in various doses as a suspension in Tylose solution by means of stomach tube.
activation at 1 µM [1] [%],IC50 (rabbit aorta rings) [µM],SMILES,Time (of max. blood pressure decrease table) (anaesthetized rats; 10 mg/kg oral) [min],Max. blood pressure decrease (anaesthetized rats; 10 mg/kg oral) [mm Hg],Time (of max. blood pressure decrease table) (anaesthetized rats; 30 mg/kg oral) [min],Max. blood pressure decrease (anaesthetized rats; 30 mg/kg oral) [mm Hg]
734,–,OCc1ccc(-c2nn(Cc3ccccc3F)c3cc(F)ccc23)o1 [Example 7],–,–,–,–
14,–,OCc1ccc(-c2nn(Cc3ccccc3)c3ccccc23)s1 [Example 11],–,–,–,–
28,–,COc1cccc(Cn2nc(-c3ccc(CO)o3)c3ccc(F)cc32)c1 [Example 8],–,–,–,–
> 906,10,"OCc1ccc(-c2nn(Cc3ccccc3)c3ccccc23)o1 [Example 14, reference compound]",60,-10,60,-18
238,–,Cc1ccc(-c2nn(Cc3ccccc3)c3ccccc23)o1 [Example 10],–,–,–,–

# Continued, molecule first:
SMILES,activation at 1 µM [1] [%],IC50 (rabbit aorta rings) [µM],Time (of max. blood pressure decrease table) (anaesthetized rats; 10 mg/kg oral) [min],Max. blood pressure decrease (anaesthetized rats; 10 mg/kg oral) [mm Hg],Time (of max. blood pressure decrease table) (anaesthetized rats; 30 mg/kg oral) [min],Max. blood pressure decrease (anaesthetized rats; 30 mg/kg oral) [mm Hg]
OCc1ccc(-c2nn(Cc3ccc(F)cc3)c3ccccc23)o1 [Example 3],250,16,–,–,–,–
COc1cccc(Cn2nc(-c3ccc(CO)o3)c3ccccc32)c1 [Example 2],72,–,–,–,–,–
"OCc1ccc(-c2nn(Cc3ccccc3F)c3ccccc23)o1 [Example 1, 1-(2-Fluorobenzyl)-3-(5-hydroxymethylfuran-2-yl)-indazole]",> 1000,4.1,60,-14,60,-18
OCc1ccc(-c2nn(Cc3cccc(F)c3)c3ccccc23)o1 [Example 4],413,9.2,–,–,–,–

# From patent US6180656A, “Use of condensated (hetaryl-substituted) 1-benzal-3-pyrazol derivates for treating special diseases of the cardiovascular and the central nervous systems” (Bayer Aktiengesellschaft, priority 1996, dated 2001)
